The source of these data is US20070197573A1, “Compositions and methods in the treatment of bone metabolic disorders” (priority 2005, published 2007).

The conditions of data set [1]: cited from earlier work.
The next data set relates to human osteoblasts. The settings on record: in vitro treatment; cited from earlier work.
The subject of a further data set is sarcoma cells. Put plainly: Tumor growth in vitro. The format is cell-based. The source says:
(§1) The peripheral opioid antagonists according to the invention provide a conjunctive therapy for managing bone metabolism while opiates are in use. Specific data describing the metabolic effects of opiates on bone metabolism are provided in the examples.

A further data set deals with IL-1β. Put plainly: IL-1β level within the bone after sustained morphine infusion. Type of data set: in vivo, mice. The note with it: sarcoma-induced.
Description: as §1

The subject of data set [2] is sarcoma-induced bone loss. Put plainly: Murine bone cancer model (sarcoma cells injected into femur), radiographic bone loss, fracture and pain under sustained morphine infusion. The format is in vivo, mice.
A further data set deals with osteoclasts. Put plainly: Osteoclast count by TRAP staining in metaphysis of distal femur. The format is in vivo, mice. From the text:
Previous studies have shown that osteolytic cancers, such as the sarcoma cell line used in these studies, upregulate osteoclasts within the bone. To determine whether the enhanced morphine-induced bone loss is mediated through further upregulation of osteoclasts, osteoclasts were stained and counted within the metaphysis of the distal head of the femur using tartrate resistant acid phosphatase (TRAP) staining.

For a further data set, the target named is delta receptors (Homo sapiens, UniProt P41143). The settings on record: in vitro; cited from earlier work.
A further data set concerns the target μ opioid receptor (Homo sapiens, UniProt P35372). The settings on record: cited from earlier work.
For data set [3] the following is noted: drug-dependent mice; cited from earlier work.
The mark [4] stands for this setting: sustained morphine administration.

Sequence of delta receptors (P41143 whole entry): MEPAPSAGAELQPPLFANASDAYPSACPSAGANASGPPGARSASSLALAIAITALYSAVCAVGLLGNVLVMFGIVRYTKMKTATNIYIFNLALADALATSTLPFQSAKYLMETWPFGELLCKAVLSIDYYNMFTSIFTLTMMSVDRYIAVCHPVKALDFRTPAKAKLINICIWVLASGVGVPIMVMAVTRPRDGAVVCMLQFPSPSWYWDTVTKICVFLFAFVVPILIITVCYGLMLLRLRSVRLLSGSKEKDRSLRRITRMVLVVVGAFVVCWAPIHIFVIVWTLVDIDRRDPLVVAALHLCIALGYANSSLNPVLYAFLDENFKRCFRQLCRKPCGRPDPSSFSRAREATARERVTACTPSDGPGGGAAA
Sequence of μ opioid receptor (P35372 whole entry, species assumed): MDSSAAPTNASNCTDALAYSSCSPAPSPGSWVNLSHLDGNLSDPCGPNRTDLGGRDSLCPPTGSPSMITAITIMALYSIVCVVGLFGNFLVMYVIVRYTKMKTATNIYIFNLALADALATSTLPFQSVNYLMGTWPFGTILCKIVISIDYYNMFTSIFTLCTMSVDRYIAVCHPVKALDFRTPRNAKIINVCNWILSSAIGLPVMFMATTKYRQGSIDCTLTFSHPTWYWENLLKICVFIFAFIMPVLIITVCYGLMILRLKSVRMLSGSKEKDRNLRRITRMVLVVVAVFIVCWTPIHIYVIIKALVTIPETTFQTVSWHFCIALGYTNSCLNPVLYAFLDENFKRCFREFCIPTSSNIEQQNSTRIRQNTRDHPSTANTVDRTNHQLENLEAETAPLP

For `O=C(O)Cc1ccccc1Nc1c(Cl)cccc1Cl` [Diclofenac], the “therapeutic concentration in serum” value in data set [1] is listed as “approximately 1.5 micrograms/ml”. For the same molecule, the “concentration giving a significant decrease of cell proliferation” value in the data set with human osteoblasts is listed as 6 micrograms/ml.

On to `CN1CC[C@]23c4c5ccc(O)c4O[C@H]2[C@@H](O)C=C[C@H]3[C@H]1C5` [morphine], for which the “tumor growth in vitro” value with sarcoma cells was “did not alter”. In the data set on IL-1β, the “IL-1β within the bone” value is “upregulated”. Moreover, the “sarcoma-induced bone loss (radiograph rating) vs saline infusion” value in [2] (6 days after sarcoma injection) is recorded as “no difference between morphine or saline treated mice”. Moreover, the “incidence of sarcoma-induced fracture vs saline infusion” value in [2] (10 days and 12 days after sarcoma injection into the femur) is “doubled”. Besides, in data set [2] (12 days after femoral sarcoma injection, sustained morphine infusion), the “sarcoma-induced bone loss (radiograph rating) vs saline infusion” value is listed as “increased sarcoma-induced bone loss”. Besides, in [2] (in vivo), the “tumor burden in vivo” value is “did not alter”. In data set [2] (setting [4]), the sarcoma-induced pain result is “enhances sarcoma-induced pain” and the time to fracture result is “accelerated time to fracture”. Moreover, in the data set with osteoclasts (control animals (no sarcoma)), the “osteoclast TRAP staining vs saline” value is given as “no difference in osteoclast staining”. For the same molecule, in the data set on osteoclasts (sarcoma treated animals, sustained morphine infusion), the “osteoclast TRAP staining vs saline infusion” value was “increased sarcoma-induced upregulation of osteoclasts”.

With `COc1cccc(C2(O)CCCCC2CN(C)C)c1` (centres unmarked) [Tramadol], the “therapeutic concentration in serum” value in [1] is 0.25 micrograms/ml. Besides, the “concentration giving a significant decrease of cell proliferation” value with human osteoblasts is “greater than 20 micrograms/ml”.

As to `O=C1C(=Cc2ccccc2)C[C@@]2(O)[C@H]3Cc4ccc(O)c5c4[C@@]2(CCN3CC2CC2)[C@H]1O5` [BNTX, 7-benzylidenenaltrexone], the “type of activity at the delta receptor” value on delta receptors is “inverse agonist”. Besides, the “type of activity at the mu receptor” value at μ opioid receptor was “inverse agonist”.

As to CTAP, in data set [3], the “withdrawal elicited, compared with naloxone” value is given as “significantly less withdrawal than naloxone”.
